Eleven compounds from ChEMBL document CHEMBL1130569, “pH Dependence of the rate of DNA alkylation for (+)-duocarmycin SA and (+)-CCBI-TMI” (Bioorg Med Chem Lett, 1997) can be followed below.

Data set [1] concerns Nucleic Acid. As to the kind of experiment: Compound was evaluated for relative rate constant for alkylation of the single high affinity site in w794 DNA at pH 7.5. The class given is nucleic-acid assay.
Data set [2] is described as follows: Compound was evaluated for first-order rate constant for acid-catalyzed solvolysis at pH 7.6. It is filed as ADME.
For data set [3], the system named is Nucleic Acid. Kind of data set: Compound was evaluated for relative rate constant for alkylation of the single high affinity site in w794 DNA at the 8.1 pH points at 25 degrees Centigrade. It is filed as nucleic-acid assay.
The test system of data set [4] is Nucleic Acid. Kind of data set: Compound was evaluated for pseudo first-order rate constant for alkylation of the single high affinity site in w794 DNA at the 8.0 pH points at 25 degrees Centigrade. The class given is nucleic-acid assay.
Data set [5] deals with Nucleic Acid. Kind of data set: Compound was evaluated for pseudo first-order rate constant for alkylation of the single high affinity site in w794 DNA at the 7.6 pH points at 25 degrees Centigrade. The class given is nucleic-acid assay.
For data set [6], the system named is Nucleic Acid. Kind of data set: Compound was evaluated for relative rate constant for alkylation of the single high affinity site in w794 DNA at the 6.0 pH points at 25 degrees Centigrade. The class given is nucleic-acid assay.
For data set [7], the system named is Nucleic Acid. As to the kind of experiment: Compound was evaluated for relative rate constant for alkylation of the single high affinity site in w794 DNA at the 7.6 pH points at 25 degrees Centigrade. It is filed as nucleic-acid assay.
In data set [8] the test system is Nucleic Acid. Kind of data set: Compound was evaluated for relative rate constant for alkylation of the single high affinity site in w794 DNA at the 6.6 pH points at 25 degrees Centigrade. The class given is nucleic-acid assay.
Data set [9] deals with Nucleic Acid. As to the kind of experiment: Compound was evaluated for relative rate constant for alkylation of the single high affinity site in w794 DNA at the 7.1 pH points at 25 degrees Centigrade. It is filed as nucleic-acid assay.
The nature of data set [10]: Half-life period for DNA alkylation, was determined. It is filed as ADME.
Data set [11] concerns Nucleic Acid. As to the kind of experiment: Compound was evaluated for pseudo first-order rate constant for alkylation of the single high affinity site in w794 DNA at the 6.1 pH points at 25 degrees Centigrade. The class given is nucleic-acid assay.
Data set [12] has as its system Nucleic Acid. As to the kind of experiment: Compound was evaluated for pseudo first-order rate constant for alkylation of the single high affinity site in w794 DNA at the 6.8 pH points at 25 degrees Centigrade. It is filed as nucleic-acid assay.
Data set [13] relates to Nucleic Acid. Kind of data set: Compound was evaluated for relative rate constant for alkylation of the single high affinity site in w794 DNA at pH 7.5 using 10 mM Tris buffers. It is filed as nucleic-acid assay.
For data set [14], the system named is Nucleic Acid. Kind of data set: Compound was evaluated for relative rate constant for alkylation of the single high affinity site in w794 DNA at the 6.1 pH points at 25 degrees Centigrade. It is filed as nucleic-acid assay.
The subject of data set [15] is Nucleic Acid. As to the kind of experiment: Compound was evaluated for relative rate constant for alkylation of the single high affinity site in w794 DNA at the 8.0 pH points at 25 degrees Centigrade. It is filed as nucleic-acid assay.
The test system of data set [16] is Nucleic Acid. As to the kind of experiment: Compound was evaluated for relative rate constant for alkylation of the single high affinity site in w794 DNA at 10 mM NaH2PO4-Na2HPO4 buffers. It is filed as nucleic-acid assay.
Data set [17] has as its system Nucleic Acid. Kind of data set: Compound was evaluated for relative rate constant for alkylation of the single high affinity site in w794 DNA at the 6.8 pH points at 25 degrees Centigrade. It is filed as nucleic-acid assay.
Data set [18] relates to Nucleic Acid. Kind of data set: Compound was evaluated for relative rate constant for alkylation of the single high affinity site in w794 DNA at pH 7.5 10 mM NaH2PO4-Na2HPO4, 1 mM EDTA buffers. The class given is nucleic-acid assay.
Data set [19] has as its system Nucleic Acid. Kind of data set: Compound was evaluated for relative rate constant for alkylation of the single high affinity site in w794 DNA at pH 7.5 using 10 mM Tris, 1 mM EDTA buffers. The class given is nucleic-acid assay.
A short description of data set [20]: Half-life period for acid-catalyzed solvolysis, was determined at pH 3. The class given is ADME.

Several values for one entry are separate records, joined by “and”; a condition that tells them apart may be missing. Identical values can stand only once.

`COc1ccc2c(c1)[C@@]13C[C@@H]1CN(C(=O)c1cc4cc(OC)c(OC)c(OC)c4[nH]1)C3=CC2=O`: in the data set on Nucleic Acid [1], the Krel was determined as 1.9.
Take `CC(C)(C)OC(=O)N1C[C@H]2C[C@@]23C1=CC(=O)c1ccccc13`: the k in [2] came out at 1.45e-06 s⁻¹.
As for `COc1ccc2c(c1)[C@@]13C[C@@H]1CN(C(=O)c1cc4cc(NC(=O)c5cc6ccccc6[nH]5)ccc4[nH]1)C3=CC2=O`, the Krel in the data set with Nucleic Acid [1] is 1.4.
In the data set on Nucleic Acid [1], `O=C(Nc1ccc2[nH]c(C(=O)N3C[C@H]4C[C@@]45C3=CC(=O)c3ccccc35)cc2c1)c1cc2ccccc2[nH]1` had a Krel of 1.
In the case of `COC(=O)c1cc2c([nH]1)C(=O)C=C1N(C(=O)c3cc4cc(OC)c(OC)c(OC)c4[nH]3)C[C@H]3C[C@]123` [DUOCARMYCIN], the Krel in the data set with Nucleic Acid [3] was 1; with Nucleic Acid [1], 0.9; with Nucleic Acid [6], 1.89; in the data set on Nucleic Acid [7], 1.05; in the data set with Nucleic Acid [8], 1.32; with Nucleic Acid [9], 1.12. Besides, the k obs with Nucleic Acid [4] was 0.000158 s⁻¹ and 0.00015 s⁻¹; in the data set on Nucleic Acid [5], 0.000169 s⁻¹; with Nucleic Acid [11] it was 0.000283 s⁻¹; with Nucleic Acid [12], 0.000199 s⁻¹. This compound came in with a T1/2 in data set [10] of 1.2 years. Besides, the k in [2] is 2.7e-11 s⁻¹.
Consider `COc1cc2cc(C(=O)N3C[C@H]4C[C@@]45C3=CC(=O)c3ccc(C#N)cc35)[nH]c2c(OC)c1OC`, for which the Krel stood at 1.74 in the data set on Nucleic Acid [13]; 2.5 with Nucleic Acid [1]; 2.55 in the data set with Nucleic Acid [14]; 1 in the data set with Nucleic Acid [15]; 1.05 in the data set with Nucleic Acid [16]; 1.5 in the data set with Nucleic Acid [17]. Moreover, the Krel with Nucleic Acid [18] was determined as 1; with Nucleic Acid [7] it was 1.2; in the data set with Nucleic Acid [19], 1.51. Besides, the k obs in the data set with Nucleic Acid [4] was determined as 0.000278 s⁻¹; with Nucleic Acid [5] it was 0.000336 s⁻¹; in the data set on Nucleic Acid [11], 0.000706 s⁻¹; in the data set with Nucleic Acid [12] it was 0.000417 s⁻¹. The compound also returned a k in data set [2] of 2.5e-11 s⁻¹.
`CC(C)(C)OC(=O)N1C[C@H]2C[C@@]23C1=CC(=O)c1ccc(C#N)cc13`: the k in data set [2] worked out at 9.9e-07 s⁻¹.
Regarding `COc1cc2cc(C(=O)N3C[C@H]4C[C@@]45C3=CC(=O)c3ccccc35)[nH]c2c(OC)c1OC`, the Krel in the data set on Nucleic Acid [1] came to 1.
Take `COc1ccc2c(c1)[C@@]13C[C@@H]1CN(C(=O)OC(C)(C)C)C3=CC2=O`: the k in [2] turned out to be 1.75e-06 s⁻¹.
As to `N#Cc1ccc2c(c1)[C@@]13C[C@@H]1CN(C(=O)c1cc4cc(NC(=O)c5cc6ccccc6[nH]5)ccc4[nH]1)C3=CC2=O`, the Krel in the data set with Nucleic Acid [1] is 2.5.
Compound `COC(=O)c1cc2c([nH]1)C(=O)C=C1N(C(=O)OC(C)(C)C)C[C@H]3C[C@]123` had a T1/2 in [20] of 177 h. The k in [2] is 1.08e-06 s⁻¹.
